{
  "source": "paper PMC10578354",
  "about": "(Journal of Medicinal Chemistry, 2023)",
  "test_system": "T24 and 5637 bladder cancer cell lines and healthy bladder epithelial cells (BdECs)",
  "test": "MTT proliferation assay",
  "type": "cell-based",
  "details": "T24 and 5637 vs BdEC, 72 h treatment, Figure 6B",
  "data": [
    {"smiles": "CN(C)CCOc1cccc(NC(=O)Cc2c[nH]c3cc(F)ccc23)c1", "note": "[NMX-10095, N-(3-(2-(Dimethylamino)ethoxy)phenyl)-2-(6-fluoro-1H-indol-3-yl)acetamide]", "values": [
      {"measurement": "inhibition of cell proliferation, cancer vs healthy cells", "value": "differential inhibition of cell proliferation"}
    ]}
  ]
}
